In US9738676B2, “Selected macrolides with PDE4-inhibiting activity” (Basilea Pharmaceutica AG, priority 2012, dated 2017):
In brackets after ≈: the same amount, converted by molar mass.

Assays:
M. catarrhalis QK34 = assay: MIC determination by broth microdilution; assay type: cell-based, Moraxella catharrhalis; settings: Moraxella catarrhalis, read-out: MIC (μg/ml) M. catarrhalis QK34
Description: (§1) All MIC values are determined by broth microdilution according to the guidelines by the Clinical and Laboratory Standards Institute (CLSI, Wayne Pa., USA). Staphylococcus aureus ATCC29213 is grown on Müller-Hinton agar (MHA) (Becton Dickinson) and then in cation-adjusted Müller Hinton broth (CaMHB) (Becton Dickinson) for 24 h at 37° C. Streptococcus pyogenes ATCC19615 and Moraxella catharrhalis QK34 are grown on MHA with 2.5% Laked Horse Blood (Oxoid). Liquid cultures in CaMHB+5% horse serum (Sigma) are incubated for 24 h at 35° C. in a 5% CO2 atmosphere. Haemophilus. influenzae 3168 is grown on MHA+2.5% Fildes extract (Oxoid). Liquid cultures are grown in CaMHB+5% Fildes extract at 35° C. in a 5% CO2 atmosphere. Propionibacteria are grown on Wilkins-Chalgren agar (WCA) (Oxoid) for 72 h under anaerobic conditions. Liquid cultures are grown anaerobically in Wilkins-Chalgren broth (WCB) (Oxoid) for 48 h at 35° C. MIC values are obtained by broth microdilution using WCB (Anaerobe Broth MIC, Difco). Microtitre plates are loaded into 7-L GENbox anaerobic incubation jars (BioMerieux) fitted with anaerobic atmosphere generators (BioMerieux) and a Dry Anaerobic Indicator Strip (BBL). Under these conditions, an O2 concentration <0.1% is achieved by 2.5 h, and a CO2 concentration >15% by 24 h.

hERG channel = hERG channel (Homo sapiens (Human), UniProt Q12809); assay: Blocking of hERG channel, whole-cell patch clamp in stably transfected HEK 293 cells; assay type: cell-based; settings: for Blocking of hERG @ 1 μM (% remaining tail current) / Blocking of hERG @ 10 μM (% remaining tail current): HEK 293 cells
S. aureus ATCC29213 = assay: MIC determination by broth microdilution; assay type: cell-based; settings: Staphylococcus aureus, read-out: MIC (μg/ml) S. aureus ATCC29213
Description: as §1

H. influenzae 3168 = assay: MIC determination by broth microdilution; assay type: cell-based; settings: Haemophilus influenzae, read-out: MIC (μg/ml) H. influenzae 3168
Description: as §1

S. pyogenes ATCC19615 = assay: MIC determination by broth microdilution; assay type: cell-based; settings: Streptococcus pyogenes, read-out: MIC (μg/ml) S. pyogenes ATCC19615
Description: as §1

P. granulosum EG13NS = assay: MIC determination by broth microdilution (anaerobic); assay type: cell-based; settings: read-out: MIC (μg/ml) P. granulosum EG13NS
Description: as §1

PDE4 (U937) = assay: PDE4 enzyme inhibition, IMAP fluorescence polarization assay; assay type: biochemical, human; settings: for IC50: PDE4 partially purified from U937 cells
Description: PDE4 is partially purified from undifferentiated human monocytic cells (U937) according to Thorpy et al. 1992 (J. Pharmacol. Exp. Ther. 263: 1195). Cells are grown in Iscove's modified Dulbecco's medium (GIBCO) with 5% foetal bovine serum (GIBCO) and 100 μg/mL penicillin-streptomycin (GIBCO). Cells are broken by sonication and PDE4 is purified by anion-exchange chromatography on DEAE-Sepharose CL-6B (GE Healthcare). […] In addition, PDE4 preparations are validated by inhibition studies with PDE4-specific and unspecific PDE inhibitors.
PDEs specifically hydrolyze cAMP and/or cGMP and release the product AMP and/or GMP. The potency of PDE inhibition by test compounds is determined with a commercially available in vitro enzymatic assay (IMAP® Fluorescence Polarization assay, Molecular Devices Corp.). Fluorescently labeled cAMP or cGMP is hydrolyzed by PDE preparations and in a second step, binding of labeled product to a large binding partner allows product detection by fluorescence polarization (FP) measurements.
Stock solutions of the test compounds are made in DMSO and diluted in assay buffer (10 mM Tris-HCl, 10 mM MgCl2, 0.1% BSA 0.05% NaN3, pH 7.2) to the desired concentrations. The solutions used in the assay contain the test compound in assay buffer with 2% DMSO. 5 μl of this pre-diluted test compound solution are mixed with 10 μl of substrate (FL-cAMP or FL-cGMP) at concentrations recommended by the manufacturer and with 5 μl of appropriately diluted PDE. 5 μl of reaction buffer with 2% DMSO are used for control reactions. […] After incubation for 90 minutes at room temperature, 60 μl of binding reagent are added as specified by the manufacturer. Binding is allowed to proceed for 30 minutes and fluorescence polarization is measured. Dose dependence of PDE inhibition is measured by assaying dilution series of test compounds. IC50 values are determined from the measured activities by curve fitting.

P. acnes EG7NS = assay: MIC determination by broth microdilution (anaerobic); assay type: cell-based, Propionibacterium acnes; settings: for MIC: Cutibacterium acnes, EG7NS, read-out: MIC (μg/ml) P. acnes EG7NS
Description: as §1

[1] = Oral bioavailability, pharmacokinetic study in mice; assay type: in vivo, mouse; settings: for bioavailability: in vivo, mouse, 10 mg/kg oral, 1 mg/kg intravenous, dose-normalized AUC, read-out: Oral bioavail. (mouse F %)
Description: Drug concentrations in blood or plasma are determined as a function of time in pharmacokinetic studies. Mice were treated with the test compound at defined doses. 10 mg/kg is used for oral administration and 1 mg/kg is taken for intravenous administration. Blood or plasma samples are collected at defined time-points and the drug content is determined by LC-MS/MS. The drug concentration is plotted as a function of time and the non-intravenous (oral) and the intravenous area under the curve (AUC) is calculated using the linear trapezoidal rule. The oral bioavailability is then calculated using dose-normalized AUC with the following formula: F[%]=AUCoral/AUCintravenous*100 Blocking of hERG Channel

bacteria = assay: Antibacterial activity; assay type: cell-based
Description: as §1

Sequence of hERG channel (Q12809 whole entry): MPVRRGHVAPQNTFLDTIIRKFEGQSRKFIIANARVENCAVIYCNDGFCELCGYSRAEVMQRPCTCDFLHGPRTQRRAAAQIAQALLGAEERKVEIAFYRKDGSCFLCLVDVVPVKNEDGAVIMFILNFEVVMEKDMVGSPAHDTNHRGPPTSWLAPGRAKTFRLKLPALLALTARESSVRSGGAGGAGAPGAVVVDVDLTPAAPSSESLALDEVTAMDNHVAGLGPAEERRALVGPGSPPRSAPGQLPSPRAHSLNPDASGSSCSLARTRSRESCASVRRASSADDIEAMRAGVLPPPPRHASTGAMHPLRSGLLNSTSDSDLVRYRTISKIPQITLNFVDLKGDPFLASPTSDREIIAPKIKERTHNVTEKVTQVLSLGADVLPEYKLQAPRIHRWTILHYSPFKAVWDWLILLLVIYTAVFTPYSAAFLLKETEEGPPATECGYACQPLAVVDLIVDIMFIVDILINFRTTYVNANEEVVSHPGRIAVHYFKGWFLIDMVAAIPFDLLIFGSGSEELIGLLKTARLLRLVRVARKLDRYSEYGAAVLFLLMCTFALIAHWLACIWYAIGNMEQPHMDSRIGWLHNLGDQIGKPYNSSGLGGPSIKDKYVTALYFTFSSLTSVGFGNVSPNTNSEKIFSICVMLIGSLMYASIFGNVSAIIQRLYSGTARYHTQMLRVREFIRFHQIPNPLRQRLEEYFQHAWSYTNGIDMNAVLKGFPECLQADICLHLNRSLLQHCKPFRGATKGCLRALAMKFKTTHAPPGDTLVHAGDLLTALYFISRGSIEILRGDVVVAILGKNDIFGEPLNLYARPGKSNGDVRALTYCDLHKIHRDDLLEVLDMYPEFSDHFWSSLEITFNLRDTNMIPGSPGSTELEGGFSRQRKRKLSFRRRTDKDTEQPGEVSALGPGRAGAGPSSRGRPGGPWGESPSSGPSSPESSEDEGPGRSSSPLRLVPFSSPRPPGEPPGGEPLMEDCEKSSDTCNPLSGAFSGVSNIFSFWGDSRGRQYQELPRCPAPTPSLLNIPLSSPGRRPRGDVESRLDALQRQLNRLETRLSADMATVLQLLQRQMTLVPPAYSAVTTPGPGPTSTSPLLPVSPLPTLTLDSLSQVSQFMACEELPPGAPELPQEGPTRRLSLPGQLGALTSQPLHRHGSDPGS

Row | SMILES | MIC (M. catarrhalis QK34) [µg/mL] | Blocking of hERG @ 1 μM (% remaining tail current) (hERG channel) [%] | Blocking of hERG @ 10 μM (% remaining tail current) (hERG channel) [%] | MIC (S. aureus ATCC29213) [µg/mL] | MIC (H. influenzae 3168) [µg/mL] | MIC (S. pyogenes ATCC19615) [µg/mL] | MIC (P. granulosum EG13NS) [µg/mL] | IC50 (PDE4 (U937)) [µM] | MIC (P. acnes EG7NS) [µg/mL] | bioavailability [1] [%] | hERG channel inhibiting activity (in words) (hERG channel) | PDE4-inhibiting activity (in words) (PDE4 (U937)) | antibacterial activity (in words) (bacteria) | oral bioavailability (in words) [1] | activity against certain strains of Propionibacterium acnes (in words) (P. acnes EG7NS)
1 | CC[C@H]1OC(=O)[C@H](C)[C@@H](O)[C@H](C)[C@@H](O[C@@H]2O[C@H](C)C[C@H](N(C)C(=O)N3CCOCC3)[C@H]2O)[C@](C)(OC)C[C@@H](C)C(=O)[C@H](C)[C@H]2[C@H](SCCOc3cc(C(=O)Nc4c(Cl)cncc4Cl)ccc3OC)C(=O)O[C@@]21C | > 32 | 99.9 | 100 | > 32 | > 32 | > 32 | > 32 | 0.0001 | > 32 | 11.5 | – | – | – | – | –
2 | CC[C@H]1OC(=O)[C@H](C)[C@@H](O[C@H]2C[C@@](C)(OC)[C@@H](O)[C@H](C)O2)[C@H](C)[C@@H](O[C@@H]2O[C@H](C)C[C@H](N(C)C(=O)N3CCOCC3)[C@H]2O)[C@](C)(OC)C[C@@H](C)C(=O)[C@H](C)[C@H]2[C@H](SCCN(Cc3c(Cl)cncc3Cl)c3ccc(OC)c(OC4CCCC4)c3)C(=O)O[C@@]21C | > 32 | 99.2 | 82.9 | > 32 | > 32 | > 32 | > 32 | 0.043 | > 32 | 1.5 | – | – | – | – | –
3 | CC[C@H]1OC(=O)[C@H](C)[C@@H](O)[C@H](C)[C@@H](O[C@@H]2O[C@H](C)C[C@H](N(C)C(=O)N3CCOCC3)[C@H]2O)[C@](C)(OC)C[C@@H](C)C(=O)[C@H](C)[C@H]2C(SCCN(Cc3c(Cl)cncc3Cl)c3ccc(OC)c(OC4CCCC4)c3)C(=O)O[C@@]21C (stereo in doubt) [compound of formula (I)] | > 32 | 99.9 | 98 | > 32 | > 32 | > 32 | > 32 | 0.035 | > 32 | 22.8 | does not inhibit | excellent | strongly reduced | particularly good | –
4 | CC[C@H]1OC(=O)[C@H](C)[C@@H](O[C@H]2C[C@@](C)(OC)[C@@H](O)[C@H](C)O2)[C@H](C)[C@@H](O[C@@H]2O[C@H](C)C[C@H](N(C)C(=O)N3CCOCC3)[C@H]2O)[C@](C)(OC)C[C@@H](C)C(=O)[C@H](C)[C@H]2N(CCCOc3cc(C(=O)Nc4c(Cl)cncc4Cl)ccc3OC)C(=O)O[C@]12C [Example 2 of WO2001/018510] | > 32 | 99 | 84 | > 32 | > 32 | > 32 | > 32 | 0.876 | 2 (≈ 1.63 µM) | 16.2 | acceptable | – | low against many bacterial strains | moderate to good | still very active
5 | CC[C@H]1OC(=O)[C@H](C)[C@@H](O)[C@H](C)[C@@H](O[C@@H]2O[C@H](C)C[C@H](N(C)C)[C@H]2OC)[C@](C)(OC)C[C@@H](C)C(=O)[C@H](C)[C@H]2[C@H](SCCN(Cc3c(Cl)cncc3Cl)c3ccc(OC)c(OC4CCCC4)c3)C(=O)O[C@@]21C [Example 9 of WO2009/106419] | > 32 | 23.7 | 3.7 | 8 (≈ 7.6 µM) | > 32 | 32 (≈ 30.4 µM) | 4 (≈ 3.8 µM) | 0.3 | 4 (≈ 3.8 µM) | 9 | rather strong | good to moderate | antibacterially inactive against many pathogenic types of bacteria | moderate | –
6 | CC[C@H]1OC(=O)[C@H](C)[C@@H](O[C@H]2C[C@@](C)(OC)[C@@H](O)[C@H](C)O2)[C@H](C)[C@@H](O[C@@H]2O[C@H](C)C[C@H](N(C)C(C)=O)[C@H]2O)[C@](C)(OC)C[C@@H](C)C(=O)[C@H](C)[C@H]2[C@H](SCCN(Cc3c(Cl)cncc3Cl)c3ccc(OC)c(OC4CCCC4)c3)C(=O)O[C@@]21C [Example 10 of WO2009/106419] | 8 (≈ 6.53 µM) | 95.9 | 85.5 | > 32 | 32 (≈ 26.1 µM) | 8 (≈ 6.53 µM) | 2 (≈ 1.63 µM) | 0.031 | 4 (≈ 3.26 µM) | 25.5 | – | excellent | strong remaining antibacterial activity against certain types of bacteria | particularly good | –
7 | CC[C@H]1OC(=O)[C@H](C)[C@@H](O[C@H]2C[C@@](C)(OC)[C@@H](O)[C@H](C)O2)[C@H](C)[C@@H](O[C@@H]2O[C@H](C)C[C@H](N(C)C(=O)N3CCOCC3)[C@H]2O)[C@](C)(OC)C[C@@H](C)C(=O)[C@H](C)[C@H]2[C@H](SCCOc3cc(C(=O)Nc4c(Cl)cncc4Cl)ccc3OC)C(=O)O[C@@]21C [Example 15 WO2009/106419] | > 32 | 100 | 98.6 | > 32 | > 32 | > 32 | > 32 | 0.071 | > 32 | 4.6 | – | excellent | strongly reduced | rather low | –
